Patent US5691348A, “Pyridyl imidazole derivatives and processes for the preparation thereof” (Daewoo Electronics Co., Ltd., priority 1994, dated 1997)
Blank lines part the entries; values can stand above or below the compound they belong to.

Experiments:
unanesthetized dogs [1] = test: Maximum blood pressure lowering effect in unanesthetized dogs at different amounts; assay type: in vivo, dog
Experimental: (§1) A number of dog was fed freely in a feeding room and those weighing 7 to 12 kg in good health were selected regardless of their gender.
(§2) The test dog was anesthetized with 30 mg/kg of pentobarbital sodium by intravenous injection and the left femoral artery and femoral vein were separated carefully. Silicone catheter, specially prepared and filled with saline treated with heparin (1,000 IU/ml), was cannulated into the blood vessels. After the surgery, the dog was constrained to measure the blood pressure continuously with Gould 2000 physiograph adapted to a Grass P23XL pressure transducer; and the heart rate was monitored with ECG/Biotacho amplifier. The dog was tested at least 2 days after the surgery.
(§3) 10 mg/kg of furosemide was injected intramuscularly 18 hours (in case of intravenous injection, 2 hours) before the beginning of the test (administration of the test compound) to improve the activity of renin in blood plasma. After the injection of furosemide, neither food nor water was provided. The test compound was suspended in Tween 80 and administered in an amount of 20 mg/kg orally. The blood pressure and heart rate were measured up to 8 hours after the administration of each test compound.
The maximum blood pressure lowering effect of the present compounds and the control compounds were determined in different amounts of administration using the same method as (i) and the results are given in Table 4.

[2] = test system: furosemide-administered dogs; test: Duration of action in furosemide-administered dogs; assay type: in vivo, dog; details: 0.3 mg oral
Experimental: as §1, §2
as §3, with “The test compound was suspended in Tween 80 and administered in an amount of 20 mg/kg orally.” left out
The compound of Example 1 and the Merck compound were administered orally to the furosemide-administrated dogs as in test 3(i), and blood pressure lowering effect was measured with time.

renal hypertensive rats = test: Duration of action in renal hypertensive rats; assay type: in vivo, Sprague-Dawley rat; details: 3 mg/kg oral
Source text: (§4) To induce renal hypertension, left renal artery of 4 week-old male Sprague-Dawley rat (from The Korea Research Institute of Chemical Technology) was ligated. The rat was anesthetized with ether and the surgical region on the left abdomen of the rat was shaved, disinfected, and then incised about 1 cm vertically. The renal artery near abdominal aorta was isolated carefully from surrounding tissues and veins, and then ligated completely with a suture (4/0 sterile surgical silk). The muscular strata and skin of the surgical area were sutured with a suture (4/0 sterile surgical silk). The surgical region was disinfected to prevent infection and thereafter, 200 to 250 mg/kg/day of cephazolin sodium was injected intramuscularly for 2 days. 6 to 8 days after the ligation, rats showing systolic pressure of more than 180 mmHg were selected for renal hypertension test. The blood pressure was determined by a tail-cuff method from the tail under unanesthetized condition (Gerold, M. et al., Arzneimittel-Forsch., 18, 1285(1968)).
(§5) Each of the compounds to be tested was administered intravenously or orally into the renal hypertensive rat. The blood pressure of the rat was determined by direct method (Chiu, A. T. et al., J. Pharmacol. Exp. Ther., 250, 867(1989)) using a catheter. The rat was anesthetized with ketamine hydrochloride (125 mg/kg, i.p.) and a catheter was filled with saline and inserted into a carotid artery and […]. The surgical area was sutured with a metal clip. The rat was relaxed at least 3 hours and the catheter in the carotid artery was adapted to an isotec pressure transducer to determine the blood pressure and heart rate with a physiograph (Linearcorder WR3310). After the blood pressure was stabilized, the test compound was administered intravenously or orally. For intravenous administration, the administered volume and washing volume were 1.0 ml/kg and 0.2 ml, respectively. The blood pressure and heart rate were measured in regular intervals up to 24 hours after the administration of the test compound and compared with those measured after the administration of the control compound Losartan.
(§6) The test compound was dissolved in 0.05N KOH for intravenous administration and suspended in Tween 80 for oral administration.
The compound of Example 1 and the Merck compound were tested using the hypertensive rats of test 2(i). 3 mg/kg of each compound was administered orally and blood pressure lowering effect with time was determined to measure the duration of action of the compounds.

renal hypertensive rat [3] = test: Blood pressure lowering effect with respect to dose (renal hypertensive rats); assay type: in vivo, Sprague-Dawley rat; details: oral
Source text: as §4, §5, §6
The present compounds, Losartan(Dup 753) and the Merck compound were administrated orally to rats in 10, 3 and 1 mg/kg under the same condition as in (ii) and the blood pressure lowering effect was determined.

[4] = Metabolite analysis: enzyme digestion test with rat liver microsome, HPLC; assay type: in vitro ADME; details: 100 μM, 1 hour at 37° C.; for metabolite from the enzymatic digestion: rat liver microsome, HPLC (FIG. 1)
Experimental: Enzyme digestion test was executed in order to detect the metabolite of the test compound in vivo.
500 μg of NADP^+, 11 U of glucose-6-phosphate dehydrogenase and 200 μg of rat liver microsome were added to 1 ml of 0.1M phosphate buffer (pH 7.4), and to the resulting solution was added glucose-6-phosphate to a concentration of 10 mM. The resultant was incubated for 1 minute at 37° C. and added with each of the present compound (Example 3) and the Merck compound to a concentration of 100 μM. The mixture was incubated for 1 hour at 37° C., and then was added with 2 ml of dichloromethan to cease the reaction. The resultant was extracted with dichloromethan and the extract was evaporated to obtain a residue. The reside was analyzed using HPLC after dissolving in a mobile phase of the HPLC.
Column: Nucleosil phenyl column (0.46×25 cm, 5 μM)
Mobile phase: acetonitrile (50 mM, pH 5.0; 35:65, v/v)
FIG. 1 is a HPLC chart showing the result of the enzyme digestion test of the Merck compound and the compound of Example 3.

angiotensin II receptor = test: Angiotensin II receptor binding assay ([3H] angiotensin II); set-up: species or system rat (Sprague-Dawley adrenal cortex/medulla; Wistar liver); details: 25° C., 60 minutes, test concentration not given
Experimental: 1. Angiotensin II receptor binding assay
In accordance with the procedure disclosed in Chiu, A. T. et al., Eur. J. Pharm., 157, 13(1981), a ligand marked with a radioisotope was reacted with an angiotensin II receptor and the reactant was filtered with a glass fiber to remove unreacted ligand. After washing the filter, the amount of the remaining isotope was measured to determine the binding activity of the ligand, as described below in detail.
Sprague-Dawley rats and Wistar rats of 250 to 350 g (from The Korea Research Institute of Chemical Technology) were tested and the test procedures were carried out at 4° C., unless otherwise specified. Adrenal gland was separated from the Sprague-Dawley rats (liver, in the case of Wistar rats) into cortex and medulla. The separated adrenal cortex and medulla were washed with a sucrose buffer solution (0.2M sucrose, 1 mM EDTA, 10 mM Tris, Ph 7.2) and homogenized in the same buffer solution by using a Teflon pestle and a Brinkmann homogenizer. The homogenates were centrifuged at 3,000× g for 10 minutes to remove precipitates and further centrifuged at 12,000× g for 13 minutes. The final supernatants were centrifuged at 102,000× g for 1 hour to obtain precipitates, which were washed with a Tris buffer solution (50 mM Tris, 5 mM MgCl2, pH 7.2) and recentrifuged at 102,000× g for 1 hour. The resulting precipitates were immediately processed at the following step or stored at -70° C.
The precipitates were suspended in a Tris buffer solution. The amount of protein was determined by using a Bio-Rad DC protein analyzing kit and the protein concentration was adjusted to the amounts of: 0.2 to 0.3 mg/ml (Sprague-Dawley rat: adrenal cortex), 1.5 to 2.0 mg/ml (Sprague-Dawley rat: adrenal medulla), and 1.5 to 2.0 mg/ml (Wistar rat: liver). To the suspension, bovine serum albumin(BSA) was added to a concentration of 0.25 wt % and the resultant was immediately processed at the following step or stored at -70° C.
50 μl (based on ligand) of [^3 H] angiotensin II (NEN, NET-446) and 10 μl of each of the test compounds with various concentrations were added to the buffer solution (50 mM Tris (pH 7.2), 5 mM MgCl2, 0.25% BSA) to adjust the final volume to be 0.5 ml. 100 μl of the receptor suspension was added thereto and the resulting solution was reacted for 60 minutes while stirring in a water bath at 25° C. 3 ml of cold buffer solution for analysis was added to cease the reaction. The isotope which was bound to the receptor was isolated from the resultant by using Brandel Cell Harvester System with Whatman glass fiber GF/C. After washing the filter, the radioactivity of the filter was determined by using a liquid scintillation counter. Binding inhibition(%) of the test compound was calculated as follows:
Binding Inhibition(%)=[{(T-B)-(S-B)}/(T-B)]×100
wherein T is the radioactivity (cpm) of the reaction product untreated with the test compound, S is the radioactivity (cpm) of the reaction product treated with the test compound, and B is the radioactivity (cpm) of blank test.

renal hypertensive rat [5] = test: Blood pressure lowering effect in renal hypertension; assay type: in vivo, Sprague-Dawley rat; details: Amount 3 mg; intravenous or oral (not specified)
Source text: as §4, §5, §6

unanesthetized dogs [6] = test: Blood pressure variation with time in unanesthetized dogs; assay type: in vivo, dog; details: 1.0 mg, oral
Experimental: as §1, §2
as §3, with “The test compound was suspended in Tween 80 and administered in an amount of 20 mg/kg orally.” left out

- metabolite from the enzymatic digestion [4]: has a metabolite
SMILES: CCc1nc2c(C)cc(C)nc2n1Cc1ccc(-c2ccccc2-c2nnn[nH]2)cc1 [Merck Compound, reference compound]
- Maximum Blood Pressure Lowering Effect (unanesthetized dogs [1]; 0.1 mg/kg): -20%
- Maximum Blood Pressure Lowering Effect (unanesthetized dogs [1]; 0.3 mg/kg): -24%
- Maximum Blood Pressure Lowering Effect ([2]; 0 min): 0.0%
- Maximum Blood Pressure Lowering Effect ([2]; 10 min): -5.0%
- Maximum Blood Pressure Lowering Effect ([2]; 20 min): -12.2%
- Maximum Blood Pressure Lowering Effect ([2]; 30 min): -14.4%
- Maximum Blood Pressure Lowering Effect ([2]; 60 min): -20.1%
- Maximum Blood Pressure Lowering Effect ([2]; 90 min): -24.4%
- Maximum Blood Pressure Lowering Effect ([2]; 120 min): -19.1%
- Maximum Blood Pressure Lowering Effect ([2]; 150 min): -24.2%
- Maximum Blood Pressure Lowering Effect ([2]; 180 min): -18.9%
- Maximum Blood Pressure Lowering Effect ([2]; 210 min): -17.0%
- Maximum Blood Pressure Lowering Effect ([2]; 240 min): -17.0%
- Maximum Blood Pressure Lowering Effect ([2]; 270 min): -13.4%
- Maximum Blood Pressure Lowering Effect ([2]; 300 min): -14.9%
- Maximum Blood Pressure Lowering Effect ([2]; 330 min): -15.6%
- Maximum Blood Pressure Lowering Effect ([2]; 360 min): -15.6%
- Maximum Blood Pressure Lowering Effect ([2]; 390 min): -11.4%
- Maximum Blood Pressure Lowering Effect ([2]; 420 min): -10.7%
- Maximum Blood Pressure Lowering Effect ([2]; 450 min): -11.4%
- Maximum Blood Pressure Lowering Effect ([2]; 480 min): -13.8%
- time for which the maximum blood pressure lowering effect lasted after the administration ([2]; Table 6, dogs): 2 to 3 h
- Maximum Blood Pressure Lowering Effect (renal hypertensive rats; 0 min): 0%
- Maximum Blood Pressure Lowering Effect (renal hypertensive rats; 10 min): -15%
- Maximum Blood Pressure Lowering Effect (renal hypertensive rats; 20 min): -27%
- Maximum Blood Pressure Lowering Effect (renal hypertensive rats; 30 min): -28%
- Maximum Blood Pressure Lowering Effect (renal hypertensive rats; 60 min): -26%
- Maximum Blood Pressure Lowering Effect (renal hypertensive rats; 90 min): -28%
- Maximum Blood Pressure Lowering Effect (renal hypertensive rats; 120 min): -25%
- Maximum Blood Pressure Lowering Effect (renal hypertensive rats; 240 min): -40%
- Maximum Blood Pressure Lowering Effect (renal hypertensive rats; 360 min): -36%
- Maximum Blood Pressure Lowering Effect (renal hypertensive rats; 1320 min): -35%
- Maximum Blood Pressure Lowering Effect (renal hypertensive rats; 1440 min): -40%
- Maximum Blood Pressure Lowering Effect (renal hypertensive rat [3]; 3 mg/kg): -40%

- Binding Inhibition (angiotensin II receptor): 86.4%
SMILES: CCCCc1nc2cc(-c3cccc[n+]3[O-])c(C)nc2n1Cc1ccc(-c2ccccc2-c2nn[nH]n2)cc1 [Example 3, 2-Butyl-5-methyl-6-(1-oxy-pyridin-2-yl)-3-[2'-(1H-tetrazol-5-yl)-biphenyl-4-ylmethyl]-3H-imidazo[4,5-b]pyridine]
- Maximum Blood Pressure Lowering Effect (unanesthetized dogs [1]; 0.1 mg/kg): -10%
- Maximum Blood Pressure Lowering Effect (unanesthetized dogs [1]; 0.3 mg/kg): -11%
- Maximum Blood Pressure Lowering Effect (unanesthetized dogs [1]; 1 mg/kg): -37%
- Maximum Blood Pressure Lowering Effect (renal hypertensive rat [5]): -50%
- Maximum Blood Pressure Lowering Effect (unanesthetized dogs [6]; 0.5 hr): -16.2%
- Maximum Blood Pressure Lowering Effect (unanesthetized dogs [6]; 1 hr): -23.8%
- Maximum Blood Pressure Lowering Effect (unanesthetized dogs [6]; 2 hr): -30.0%
- Maximum Blood Pressure Lowering Effect (unanesthetized dogs [6]; 4 hr): -32.7%
- Maximum Blood Pressure Lowering Effect (unanesthetized dogs [6]; 6 hr): -35.5%
- Maximum Blood Pressure Lowering Effect (unanesthetized dogs [6]; 8 hr): -33.0%
- Maximum Blood Pressure Lowering Effect (renal hypertensive rat [3]; 1 mg/kg): -20%
- stability against the enzymatic digestion ([4]; in contrast with the Merck compound): good stability against the enzymatic digestion
- metabolite from the enzymatic digestion [4]: has no metabolite from the enzymatic digestion
